The record followed here is patent US20160108049A1 (TAKEDA Gmbh, priority 2011, published 2016).

The target of one test is T1, human PDE5 (Homo sapiens, UniProt O76074).
T1 construct: from tissue; host or cells: human platelets from fresh donor blood (platelet lysate)
Briefly: Inhibition of PDE5 activity (platelet lysate, SPA assay). Type of test: biochemical. Particulars: 0.5 μM cGMP, read-out: PDE5 Inhibitory values measured as -logIC50 (converted). The gist of the method: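 SPA readout of [3H]cGMP hydrolysis (0.5 μM, 15 min, 37 °C after 5 min preincubation), stopped with yttrium silicate beads containing IBMX. Enzyme was lysate from human platelets, used at 10–20% substrate turnover, with PDE3 (motapizone 1 μM) and PDE2 (10 nM) blockers present. IC50 values fitted non-linearly from concentration-effect curves.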

Another test concerns the target T2, PDE4B1 (Homo sapiens, UniProt Q07343).
T2 construct: made in house; host or cells: SF21 insect cells (baculovirus; virus made in SF9 cells, pCR-Bac vector)
Briefly: Inhibition of PDE4 activity (PDE4B1, SPA assay). It counts as biochemical. Conditions: recombinant PDE4B1, 0.5 μM cAMP; read-out: PDE4B1 Inhibitory values measured as -logIC50 (converted). The gist of the method:
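Read-out is SPA yttrium silicate bead scintillation after IBMX-containing beads stop the reaction. Insect-cell (SF21) lysate enzyme hydrolysed 0.5 μM [3H]cAMP at pH 7.4 with 5 mM Mg2+ for 15 min after a 5 min 37 °C preincubation; IC50 fitted by non-linear regression.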

Each structure is given as a SMILES string.

T2 sequence (Q07343 whole entry): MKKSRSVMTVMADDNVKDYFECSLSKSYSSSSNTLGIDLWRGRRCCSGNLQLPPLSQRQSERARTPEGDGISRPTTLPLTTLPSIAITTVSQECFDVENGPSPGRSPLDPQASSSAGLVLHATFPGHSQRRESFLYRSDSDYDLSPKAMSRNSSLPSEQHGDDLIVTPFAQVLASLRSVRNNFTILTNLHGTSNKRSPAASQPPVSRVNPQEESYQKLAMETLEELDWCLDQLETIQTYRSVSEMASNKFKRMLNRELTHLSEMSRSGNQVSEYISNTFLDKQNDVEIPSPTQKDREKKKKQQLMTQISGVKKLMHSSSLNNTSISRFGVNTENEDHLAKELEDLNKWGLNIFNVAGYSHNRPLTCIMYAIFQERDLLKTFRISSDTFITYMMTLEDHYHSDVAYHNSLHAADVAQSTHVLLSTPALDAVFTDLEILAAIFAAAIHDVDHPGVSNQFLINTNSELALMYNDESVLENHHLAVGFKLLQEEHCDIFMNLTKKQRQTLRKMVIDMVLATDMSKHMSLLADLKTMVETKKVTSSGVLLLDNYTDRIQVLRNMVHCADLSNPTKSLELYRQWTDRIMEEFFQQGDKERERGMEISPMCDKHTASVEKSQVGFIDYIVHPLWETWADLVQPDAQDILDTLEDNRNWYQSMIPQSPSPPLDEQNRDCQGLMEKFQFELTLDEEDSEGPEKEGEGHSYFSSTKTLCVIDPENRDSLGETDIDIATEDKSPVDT

In the case of `COc1cc(-c2ncnc3c(C(=O)N[C@H](Cc4ccccc4)C(=O)N4CCC(N5N=C(c6ccc(OC)c(OC)c6)[C@H]6CCCC[C@H]6C5=O)CC4)c[nH]c23)c(OCC2CC2)cc1F` [Example 24, 4-[2-(cyclopropylmethoxy)-4-fluoro-5-methoxyphenyl]-N-[(2R)-1-{4-[(4aS,8aR)-4-(3,4-dimethoxyphenyl)-1-oxo-4a,5,6,7,8,8a-hexahydrophthalazin-2(1H)-yl]piperidin-1-yl}-1-oxo-3-phenylpropan-2-yl]-5H-pyrrolo[3,2-d]pyrimidine-7-carboxamide], the IC50 on human PDE5 and at PDE4B1 was 1 to 10 nM in each case.
Turning to `COc1ccc(C[C@H](NC(=O)c2c[nH]c3c(-c4c(OCC5CC5)ccc5c4OCO5)ncnc23)C(=O)N2CCC(N3N=C(c4ccc(OC)c(OC)c4)[C@H]4CCCC[C@H]4C3=O)CC2)cc1OC` [Example 25, 4-[5-(cyclopropylmethoxy)-1,3-benzodioxol-4-yl]-N-[(2S)-3-(3,4-dimethoxyphenyl)-1-{4-[(4aS,8aR)-4-(3,4-dimethoxyphenyl)-1-oxo-4a,5,6,7,8,8a-hexahydrophthalazin-2(1H)-yl]piperidin-1-yl}-1-oxopropan-2-yl]-5H-pyrrolo[3,2-d]pyrimidine-7-carboxamide], the IC50 at human PDE5 and on PDE4B1 was 1 to 10 nM each time.
Turning to `COc1ccc(C2=NN(C3CCN(C(=O)[C@@H](Cc4ccccc4)NC(=O)c4c(C)[nH]c5c(-c6c(OCC7CC7)ccc7c6OCO7)ncnc45)CC3)C(=O)[C@@H]3CCCC[C@H]23)cc1OC` [Example 26, 4-[5-(cyclopropylmethoxy)-1,3-benzodioxol-4-yl]-N-[(2R)-1-{4-[(4aS,8aR)-4-(3,4-dimethoxyphenyl)-1-oxo-4a,5,6,7,8,8a-hexahydrophthalazin-2(1H)-yl]piperidin-1-yl}-1-oxo-3-phenylpropan-2-yl]-6-methyl-5H-pyrrolo[3,2-d]pyrimidine-7-carboxamide], the values for the IC50 on human PDE5 and at PDE4B1 were below 1 nM and 1 to 10 nM, respectively.
On to `COc1ccc(C2=NN(C3CCN(C(=O)[C@@H](Cc4ccc(Cl)cc4)NC(=O)c4c[nH]c5c(-c6c(OCC7CC7)ccc7c6OCO7)ncnc45)CC3)C(=O)[C@@H]3CCCC[C@H]23)cc1OC` [Example 27, N-[(2R)-3-(4-chlorophenyl)-1-{4-[(4aS,8aR)-4-(3,4-dimethoxyphenyl)-1-oxo-4a,5,6,7,8,8a-hexahydrophthalazin-2(1H)-yl]piperidin-1-yl}-1-oxopropan-2-yl]-4-[5-(cyclopropylmethoxy)-1,3-benzodioxol-4-yl]-5H-pyrrolo[3,2-d]pyrimidine-7-carboxamide], for which the IC50 on human PDE5 was below 1 nM; at PDE4B1 it was 1 to 10 nM.
For `COc1ccc(C2=NN(C3CCN(C(=O)[C@@H](Cc4ccc(F)cc4)NC(=O)c4c[nH]c5c(-c6c(OCC7CC7)ccc7c6OCO7)ncnc45)CC3)C(=O)[C@@H]3CCCC[C@H]23)cc1OC` [Example 28, 4-[5-(cyclopropylmethoxy)-1,3-benzodioxol-4-yl]-N-[(2R)-1-{4-[(4aS,8aR)-4-(3,4-dimethoxyphenyl)-1-oxo-4a,5,6,7,8,8a-hexahydrophthalazin-2(1H)-yl]piperidin-1-yl}-3-(4-fluorophenyl)-1-oxopropan-2-yl]-5H-pyrrolo[3,2-d]pyrimidine-7-carboxamide] the same measures were below 1 nM and below 1 nM.
For `COc1ccc(C[C@@H](NC(=O)c2c[nH]c3c(-c4c(OCC5CC5)ccc5c4OCO5)ncnc23)C(=O)N2CCC(N3N=C(c4ccc(OC)c(OC)c4)[C@H]4CCCC[C@H]4C3=O)CC2)cc1` [Example 29, 4-[5-(cyclopropylmethoxy)-1,3-benzodioxol-4-yl]-N-[(2R)-1-{4-[(4aS,8aR)-4-(3,4-dimethoxyphenyl)-1-oxo-4a,5,6,7,8,8a-hexahydrophthalazin-2(1H)-yl]piperidin-1-yl}-3-(4-methoxyphenyl)-1-oxopropan-2-yl]-5H-pyrrolo[3,2-d]pyrimidine-7-carboxamide], the IC50 was below 1 nM at human PDE5 and 1 to 10 nM at PDE4B1.
